This note sets out measurements from patent US20060216299A1, “Cell cycle targets and peptides” (Rigel Pharmaceuticals, Inc., priority 2002, published 2006).

What all share (assay type): cell-based, human
Test [1] concerns A549.tTA cells expressing #38 and #41. The test can be described thus: Role of farnesylation in cellular localization of GFP fused #38. The conditions noted are these: 2 μM L-744,832, 48 hours. On the procedure:
#38 has a CAAX box motif in the C-terminus. A 15-carbon farnesyl or 20-carbon geranylgeranyl isoprenoid is linked to the Cys in a CAAX box motif by Farnesyl transferase or Geranylgeranyl transferase, respectively (Fu, H. W. et al., Recent Prog Horm Res, 54:315-342; discussion 342-313 (1999)). The role of farnesylation in cellular localization of #38 was examined. A549.tTA cells expressing #38 and #41 were treated with a peptidomimetic farnesyltransferase specific inhibitor, L-744,832 for 48 hours.

Another test concerns A549 cells. The test can be described thus: High content imaging of anti-proliferative synthetic K7 peptides (nuclei and apoptotic nuclei, 24 hours). On the procedure:
A549 cells (American Type Culture Collection (ATCC), Manassas, Va., U.S.A.) were plated at 2000 cells/well in 96 well plates with F12K media supplemented with 10% fetal bovine serum and 1% penicillin/streptomycin and allowed to grow for 24 hours. Peptide dissolved in media was added to the cells to a final concentration ranging from 0.8 to 25 uM in triplicate. Following incubation with peptide for 24 hours, cells were fixed with 3.7% formaldehyde for 30 minutes, rinsed in PBS and stained with DAPI (Molecular Probes) to label nuclear DNA. Digital images were taken of the labeled nuclei in each well using a Zeiss Axiovert microscope, UV filter set and Photometrics camera.

The subject of test [2] is A549 lung carcinoma cells. Description: Fluorescence microscopy examination of A549 cells exposed to lys7-peptides (nuclei, apoptosis, cell cycle stage, 48 hours). On the procedure: A549 tumor cells (American Type Culture Collection, Fairfax Va.) were plated at 2000 cells per well in 96 well plates with F12k media supplemented with 10% fetal bovine serum and 1% penicillin/streptomycin and allowed to grow for 24 hours. Peptide dissolved in media was added to the cells to a final concentration of 0.8 to 100 uM in triplicate. Following incubation with peptide for 24 or 48 hours, cells were fixed with 3.7% formaldehyde for 30 minutes, rinsed in PBS and stained with DAPI (Molecular Probes, OR) to label nuclear DNA. Digital images of the labeled nuclei in each well were taken using a Zeiss Axiovert microscope, UV filter set and Photometrics camera.

The test system of test [3] is A549 cells expressing GFP fusion #38 and #41. The test can be described thus: Displacement of cellular localization of GFP fusion peptides by synthetic analogues. The conditions noted are these: 100 μM peptide, 5 hours. How it is done: GFP fused #38, #40, and #41 were concentrated at the plasma membrane and granular cytoplasmic structures. […] We examined whether synthetic analogues can displace cellular localization of GFP fusion peptides. A549 cells expressing GFP fusion #38 and #41 were incubated with 100 μM of K7—#41, K7—#41M and K7—#40 for 5 hours and GFP localization was analyzed using a fluorescent microscope.

On to `CC[C@H](C)[C@@H](CO[C@@H](Cc1ccccc1)C(=O)N[C@@H](CCS(C)(=O)=O)C(=O)OC(C)C)NC[C@@H](N)CS` [L-744,832], for which, in test [1], the “cellular localization of #38 in the presence of inhibitor” value is on record as “completely abolished”.

For “synthetic #41 fused with seven Lys (K7) via a linker (GGEEAAKA) at the N-terminus [K7—#41]”, the apoptotic nuclei result with A549 cells is given as “increase in apoptotic nuclei”. The “number of observed cell nuclei remaining” value in test [2] (A549 cells, 48 hours exposure, increasing doses) is reported as “ca. 10 % of original values”. In addition, the “cell cycle stage distribution” value in test [2] (asynchronously growing A549 cells, 48 hours, remaining cells that have not undergone apoptosis) was “G1 phase cells were depleted and the percent of M phase cells increased significantly”. In addition, in test [3], the “change of cellular localization of GFP fusion #41” value was “punctuated localization of GFP and loss of GFP localization in the cell-cell contact area”.
